Results reported in article PMC7217877, “N-AS-triggered SPMs are direct regulators of microglia in a model of Alzheimer’s disease” (Nature Communications, 2020).
“And” between values parts separate entries of the source, which are not always exact repeats. Equal values may be shown once.

Biological target: T1, COX2 S565A (Homo sapiens, UniProt P35354, S565A)
T1 construct: His (N); made in house
T1 sequence (P35354 18-604 S565A): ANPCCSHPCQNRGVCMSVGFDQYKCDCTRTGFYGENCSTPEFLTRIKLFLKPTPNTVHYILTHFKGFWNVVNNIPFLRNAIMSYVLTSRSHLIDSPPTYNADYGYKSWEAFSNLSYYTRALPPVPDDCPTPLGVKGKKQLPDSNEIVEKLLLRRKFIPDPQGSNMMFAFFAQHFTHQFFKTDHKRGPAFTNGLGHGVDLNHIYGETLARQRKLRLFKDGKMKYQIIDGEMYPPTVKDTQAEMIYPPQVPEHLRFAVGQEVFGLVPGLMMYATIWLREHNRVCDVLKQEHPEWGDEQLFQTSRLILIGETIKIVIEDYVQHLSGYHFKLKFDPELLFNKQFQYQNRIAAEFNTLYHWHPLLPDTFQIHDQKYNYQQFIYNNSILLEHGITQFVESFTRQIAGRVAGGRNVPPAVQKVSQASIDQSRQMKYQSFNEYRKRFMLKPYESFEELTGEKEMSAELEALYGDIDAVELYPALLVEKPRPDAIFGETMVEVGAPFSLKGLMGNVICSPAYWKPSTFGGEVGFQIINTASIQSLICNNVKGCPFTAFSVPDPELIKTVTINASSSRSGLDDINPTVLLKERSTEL
Assay: lipid mediator and SPM biosynthesis by recombinant COX2 with 5-LOX (LC-MS/MS)
Assay type: biochemical
Details: COX2 S565A + 5-LOX; replicates
Source text: Single point mutations in SphK1 (R56A, R57A, R24A, R185A, D178A, and F192A) and COX2 (S565A, N181A, T564A, and S567A) were generated using the In-Fusion Cloning Kits (Clontech) and ORF cDNA expression plasmids of human SphK1 and COX2 gene (Sino Biological Inc, HG15679-NH and HG12036-NH), according to the manufacturer’s instructions. The forward and reverse primers described in Supplementary Table 4. The SphK1 WT, SphK1 mutants, COX2 WT, and COX2 mutant plasmids were transformed in the One shot TOP 10 competent cell (Invitrogen). The bacteria were grown in Luria-Bertani (LB, Invitrogen) plates supplemented with 50 μg ml^−1 kanamycin (Sigma-Aldrich) at 37 °C. The bacterial cell pellets were resuspended in lysis buffer containing 20 mM sodium phosphate (GE Healthcare), 500 mM NaCl (GE Healthcare), 20 mM imidazole (pH 7.4) (GE Healthcare), 0.2 mg ml^−1 lysozyme (Sigma-Aldrich), 20 μg ml^−1 DNase I (Roche), 1 mM MgCl2 (Sigma-Aldrich), and 1 mM PMSF (Sigma-Aldrich) before being lysed by sonication and clarified by centrifugation at 15,493×g for 10 min. Proteins were purified from the soluble fraction using His-Spin Trap columns (GE Healthcare) and the binding and acetylation assays were performed.
Lipid mediators metabololipidomics were performed according to previously described procedures with minor modifications[4],[30]. To confirm the biosynthesis of lipid mediators by recombinant COX2 treated with N-AS or aspirin, 10 U of human recombinant COX2 (Cayman, 60122) was incubated in the presence of 500 μM aspirin (Sigma-Aldrich, A5376) or N-AS (Sigma-Aldrich, 01912) at 37 °C for 30 min. The enzyme was filtered with a Microcon column (Millipore) to remove unreacted aspirin or N-AS and was then resuspended in 0.1 M Tris-HCl (pH 8.0). Next, 500 μM phenol (Sigma-Aldrich) and 1 μM hematin-porcine (Sigma-Aldrich) were added immediately before incubation with 100 μM AA, EPA or DHA (Cayman) at 37 °C for 2 h, respectively. The mixtures were incubated with 30 U of human 5-LOX (Cayman, 60402) containing 2 mM CaCl2 (Sigma-Aldrich), 1 mM ATP (Amresco) and 5 μM 13-HpODE (Cayman) as activators. Also, to validate the importance of residue S565 for N-AS-acetylation of COX2 and production of SPMs, 10 U of the COX2 S565A mutant was used in the above-described method. In addition, to confirm SPM generation in neurons and microglia, these cells were treated with Aβ and sonicated in neuronal and glial culture medium. […] To evaluate the relationship of N-AS and SPM production in microglia, microglia were isolated from WT, APP/PS1, and APP/PS1 treated with N-AS mice at 9 months of age. The microglia were sonicated and resuspended in microglial culture medium. The supernatants were incubated with 100 μM AA, EPA, and DHA (Cayman) at 37 °C for 2 h. A 50 μl aliquot of the mixture from each cell lysate was added to a 250 μl aliquot of 1 ng ml^−1 of 15S-LXA4-d5 (internal standard, Cayman) methanol solution. After vortexing for 10 min and centrifuging at 15,974×g for 5 min, the supernatant was subjected to the analysis of the lipid mediators using an Agilent 6470 Triple Quad LC-MS/MS system (Agilent) coupled to an Agilent 1290 HPLC system. Chromatographic separation was achieved using a Synergi Polar RP (4 μm, 2.0 mm i.d. × 150 mm, Phenomenex). Analytes were eluted with a mobile phase consisting of water: formic acid (100:0.1 v/v) (phase A) and methanol: formic acid (100:0.1 v/v) (phase B) in gradient elution mode for 23 min a flow rate of 0.2 ml min^−1. The elution gradient was as follows: from 0 to 0.1 min the content of phase A was 37% and the content of phase A was decreased to 10% and maintained for 5.5 min. The content of phase A was increased back to 37% at 6.0 min and maintained for 23 min. Quantification was carried out using MRM in negative ionization mode and collision energy of 10–15 eV. The mass transition from Q1 to Q3 is shown in Supplementary Table 2. In this study, the peak areas for all components were automatically integrated using MassHunter B 06.00. […]

Row | SMILES | 15R-LxA4 quantification (Fig 2c) | RvD1 quantification (Fig 2c) | RvE1 quantification (Fig 2c)
1 | CC(=O)Oc1ccccc1C(=O)O [Aspirin, acetylsalicylic acid, reference compound] | 9150.99 and 8986.22 and 7776.32 and 8811.42 and 9216.35 and 9050.41 | 427.4 and 465.61 and 668.98 and 626.93 and 591.63 and 656.31 and 339.99 | 3219.24 and 3312.36 and 4211.76 and 3281.98 and 3114.22 and 3326.6
2 | CCCCCCCCCCCCC/C=C/[C@@H](O)[C@H](CO)NC(C)=O [N-AS, N-((2S,3R,E)-1,3-Dihydroxyoctadec-4-en-2-yl)acetamide] | 4593.92 and 7037.27 and 8226.06 and 8467.27 and 8518.27 | 267.45 and 147.28 and 357.09 and 383.18 and 373.27 and 420.17 and 225.36 | 2644.24 and 1751.77 and 1695.83 and 1984.56 and 2632.92 and 1703.12 and 1993.09
